Assay results as given in patent US8173689B2 (Novartis AG, priority 2006, dated 2012).
Read-outs that look alike come from different tables or passages of the source.

Legend:
[1] = molecular target: T1, cytoplasmic domain of the human CSF-1R (Homo sapiens, UniProt P07333); experiment: In vitro kinase assay for colony stimulating factor-1 receptor (AlphaScreen); format: biochemical; conditions: tested at about 1 μM; for inhibition at 1 µM: read-out: CSF-1R percent inhibition
T1 construct: Recombinant protein corresponding to the cytoplasmic domain of the human CSF-1R; purchased Invitrogen Corporation, Carlsbad, Calif; PV3249
T1 sequence (P07333 539-972 limits assumed): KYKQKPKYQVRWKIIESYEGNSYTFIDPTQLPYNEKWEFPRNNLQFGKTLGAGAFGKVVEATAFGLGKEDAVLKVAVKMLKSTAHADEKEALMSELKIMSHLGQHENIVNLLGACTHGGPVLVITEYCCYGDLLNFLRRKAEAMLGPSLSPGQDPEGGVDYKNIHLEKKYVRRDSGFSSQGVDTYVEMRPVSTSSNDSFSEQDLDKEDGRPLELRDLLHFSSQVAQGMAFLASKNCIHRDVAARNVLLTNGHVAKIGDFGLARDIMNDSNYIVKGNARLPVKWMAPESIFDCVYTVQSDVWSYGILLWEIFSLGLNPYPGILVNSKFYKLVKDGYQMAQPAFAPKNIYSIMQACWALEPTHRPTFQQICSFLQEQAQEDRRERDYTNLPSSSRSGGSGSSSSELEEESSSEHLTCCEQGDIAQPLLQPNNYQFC
Experimental: The kinase activity of various protein tyrosine kinases can be measured by providing ATP and a suitable peptide or protein tyrosine-containing substrate, and assaying the transfer of phosphate moiety to the tyrosine residue. Recombinant protein corresponding to the cytoplasmic domain of the human CSF-1R was purchased from Invitrogen Corporation, Carlsbad, Calif. U.S.A. (#PV3249). For each assay, test compounds were serially diluted, starting at 25 μM with 3 fold dilutions, in DMSO in 384 well plates then mixed with an appropriate kinase reaction buffer consisting of 50 mM Hepes, 5 mM MgCl2, 10 mM MnCl2, 0.1% BSA, pH 7.5, 1.0 mM dithiothreitol, 0.01% Tween 80 plus 1 μM ATP. […] Added to the stopped reaction mix was 30 μL of PT66 Alphascreen beads (Perkin Elmer, Boston, Mass., U.S.A.). The reaction was incubated overnight and read on the Envision (Perkin Elmer). Phosphorylated peptide product was measured with the AlphaScreen system (Perkin Elmer) using acceptor beads coated with anti-phosphotyrosine antibody PT66 and donor beads coated with streptavidin that emit a fluorescent signal at the 520-620 nm emission wave length if in close proximity.
CSF-1R kinase was added at final concentration of 4 nM.

kinase domain of cKIT = molecular target: T2, kinase domain of cKIT (Homo sapiens, UniProt P10721); experiment: Inhibition of cKIT kinase signaling in an in vitro biochemical assay (alphascreen); conditions: tested at about 1 μM; for inhibition at 1 µM: read-out: cKit percent inhibition
T2 construct: The kinase domain of cKIT was assayed in 50 mM Hepes; purchased Upstate 14-559
Experimental: (§1) The IC50 values for the inhibition of RTKs were determined in the alphascreen format measuring the inhibition by compound of phosphate transfer to a substrate by the respective enzyme. Briefly, the respective RTK domain purchased as human recombinant protein (cKIT Upstate #14-559, PDGFRb Invitrogen #P3082) were incubated with serial dilutions of compound in the presence of substrate and ATP concentrations within 3 times the Km of the enzyme.
(§2) Alphascreen PY20 beads were added to the stopped cKIT reactions and PY20 Ab/Protein A Alphascreen beads were added to the PDGFRβ stopped reactions. Both reactions were incubated overnight and read on the Alphascreen reader.

kinase domain of PDGFRβ = molecular target: T3, kinase domain of PDGFRβ (Homo sapiens, UniProt P09619); experiment: Inhibition of PDGFRb kinase signaling in an in vitro biochemical assay (alphascreen); conditions: tested at about 1 μM, read-out: PDGFRβ percent inhibition
T3 construct: The kinase domain of PDGFRβ was assayed in 50 mM Hepes; purchased Invitrogen P3082
Experimental: as §1, §2

T2 sequence (P10721 589-937 limits assumed): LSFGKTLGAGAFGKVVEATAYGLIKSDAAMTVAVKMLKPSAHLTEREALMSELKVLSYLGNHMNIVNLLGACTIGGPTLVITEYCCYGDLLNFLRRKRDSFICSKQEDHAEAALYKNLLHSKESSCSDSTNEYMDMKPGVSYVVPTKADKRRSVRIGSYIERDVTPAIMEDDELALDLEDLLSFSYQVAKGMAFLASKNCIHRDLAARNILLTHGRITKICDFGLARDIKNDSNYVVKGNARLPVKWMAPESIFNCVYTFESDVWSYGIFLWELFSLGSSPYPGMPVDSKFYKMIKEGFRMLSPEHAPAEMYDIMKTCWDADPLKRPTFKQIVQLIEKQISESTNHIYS
T3 sequence (P09619 600-962 limits assumed): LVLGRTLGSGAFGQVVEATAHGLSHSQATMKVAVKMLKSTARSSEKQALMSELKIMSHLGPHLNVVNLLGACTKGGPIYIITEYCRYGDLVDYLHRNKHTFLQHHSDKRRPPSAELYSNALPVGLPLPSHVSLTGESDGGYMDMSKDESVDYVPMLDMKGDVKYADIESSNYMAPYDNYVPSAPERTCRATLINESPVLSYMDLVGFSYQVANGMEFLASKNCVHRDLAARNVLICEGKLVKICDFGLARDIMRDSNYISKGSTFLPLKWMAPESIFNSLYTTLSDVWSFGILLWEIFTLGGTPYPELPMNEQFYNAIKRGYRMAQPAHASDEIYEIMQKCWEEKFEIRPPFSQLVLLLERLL

Compound	inhibition at 1 µM [1]	inhibition at 1 µM (kinase domain of cKIT)	inhibition at 1 µM (kinase domain of PDGFRβ)	also measured
CNC(=O)c1cc(Oc2ccc3nc(N[C@@H]4CCC(=O)NC4)sc3c2)ccn1 [Compound 86]	–	–	–	inhibition at 1 µM ([1]; compounds of Table 3): 63%; inhibition at 1 µM (kinase domain of cKIT; compounds of Table 3): 15%; inhibition at 1 µM (kinase domain of PDGFRβ; compounds of Table 3): 32%
CNC(=O)c1cc(Oc2ccc3nc(N[C@H](C(=O)NC)c4ccccc4)oc3c2)ccn1 [Compound 39, 4-{2-[((S)-Methylcarbamoyl-phenyl-methyl)-amino]-benzooxazol-6-yloxy}-pyridine-2-carboxylic acid methylamide]	67%	–	10%	–
4-[2-(Benzo[1,3]dioxol-5-yl- amino)-benzooxazol-6- yloxy]-pyridine-2-carboxylic acid methylamide [Compound 95]	–	–	–	CSF-1R percent inhibition ([1]; compounds of Table 4): 100%; cKit percent inhibition (kinase domain of cKIT; compounds of Table 4): 42%
CC(=O)N[C@H]1CCN(c2cc(Oc3ccc4nc(N[C@@H]5CCCC[C@H]5O)sc4c3)ccn2)C1 [Cmpd 178, N-((S)-1-(4-(2-((1R,2R)-2-hydroxycyclohexylamino)benzo[d]thiazol-6-yloxy)pyridin-2-yl)pyrrolidin-3-yl)acetamide]	–	–	–	inhibition at 1 µM ([1]; compounds of Table 3): 82%; inhibition at 1 µM (kinase domain of cKIT; compounds of Table 3): 17%; inhibition at 1 µM (kinase domain of PDGFRβ; compounds of Table 3): -3%
O[C@@H]1CCCC[C@H]1Nc1nc2ccc(Oc3ccnc(N4CCCCC4)c3)cc2s1 [Cmpd 174, (1R,2R)-2-(6-(2-(piperidin-1-yl)pyridin-4-yloxy)benzo[d]thiazol-2-ylamino)cyclohexanol]	–	–	–	inhibition at 1 µM ([1]; compounds of Table 3): 86%; inhibition at 1 µM (kinase domain of cKIT; compounds of Table 3): 18%; inhibition at 1 µM (kinase domain of PDGFRβ; compounds of Table 3): 3%
CNC(=O)c1cc(Oc2ccc3nc(N[C@@H](C)c4ccc5ccccc5c4)oc3c2)ccn1 [Compound 20, 4-[2-((S)-1-Naphthalen-2-yl-ethylamino)-benzooxazol-6-yloxy]-pyridine-2-carboxylic acid methylamide]	15%	–	0%	–
CNC(=O)c1cc(Oc2ccc3nc(N[C@@H](C(=O)O)c4ccccc4)oc3c2)ccn1 [Compound 35, (R)-[6-(2-Methylcarbamoyl-pyridin-4-yloxy)-benzooxazol-2-ylamino]-phenyl-acetic acid]	19%	–	9%	–
CNC(=O)c1cc(Oc2ccc3nc(NC4CCOCC4)oc3c2)ccn1 [Compound 30, 4-[2-(Tetrahydro-pyran-4-yl-amino)-benzooxazol-6-yloxy]-pyridine-2-carboxylic acid methylamide]	25%	–	14%	–
CNC(=O)c1cc(Oc2ccc3nc(NC(C)c4nccs4)oc3c2)ccn1 (stereo not drawn) [Compound 6, 4-[2-(1-Thiazol-2-yl-ethylamino)-benzooxazol-6-yloxy]-pyridine-2-carboxylic acid methylamide]	85%	–	–	–
CNC(=O)c1cc(Oc2ccc3nc(N[C@H](C(=O)O)c4ccccc4)oc3c2)ccn1 [Compound 38, (S)-[6-(2-Methylcarbamoyl-pyridin-4-yloxy)-benzooxazol-2-ylamino]-phenyl-acetic acid]	34%	–	14%	–
CNC(=O)c1cc(Oc2ccc3nc(N[C@@H](CO)c4ccccc4)oc3c2)ccn1 [Compound 37, 4-[2-((R)-2-Hydroxy-1-phenyl-ethylamino)-benzooxazol-6-yloxy]-pyridine-2-carboxylic acid methylamide]	79%	–	16%	–
CNC(=O)c1cc(Oc2ccc3nc(NC4CCCC4)oc3c2)ccn1 [Compound 23, 4-(2-Cyclopentylamino-benzooxazol-6-yloxy)-pyridine-2-carboxylic acid methylamide]	50%	–	0%	–

More lines, main results first:

inhibition at 1 µM [1]	inhibition at 1 µM (kinase domain of cKIT)	inhibition at 1 µM (kinase domain of PDGFRβ)	Compound	also measured
90%	15%	6%	CNC(=O)c1cc(Oc2ccc3nc(NC4CCN(C(C)=O)CC4)sc3c2)ccn1 [Example 307, 4-(2-(1-acetylpiperidin-4-ylamino)benzo[d]thiazol-6-yloxy)-N-methylpicolinamide]	–
77%	16%	36%	CNC(=O)c1cc(Oc2cc3sc(NCC4CCCCC4)nc3cc2F)ccn1 [Example 379, 4-(2-(cyclohexylmethylamino)-5-fluorobenzo[d]thiazol-6-yloxy)-N-methylpicolinamide]	–
11%	–	14%	CNC(=O)c1cc(Oc2ccc3nc(Nc4ccccc4-n4cnc(C)c4)oc3c2)ccn1 [Compound 45, 4-{2-[2-(4-Methyl-imidazol-1-yl)-phenylamino]-benzooxazol-6-yloxy}-pyridine-2-carboxylic acid methylamide]	–
95%	21%	0%	CNC(=O)c1cc(Oc2ccc3nc(N[C@@H](C(=O)OC)c4ccccc4)oc3c2)ccn1 [Compound 53, (R)-[6-(2-Methylcarbamoyl-pyridin-4-yloxy)-benzooxazol-2-ylamino]-phenyl-acetic acid methyl ester]	–
99%	10%	9%	CNC(=O)c1cc(Oc2ccc3nc(NC(C)(C)C)oc3c2)ccn1 [Compound 100, 4-(2-tert-Butylamino-benzo-oxazol-6-yloxy)-pyridine-2-carboxylic acid methylamide]	–
26%	7%	0%	CNC(=O)c1cc(Oc2ccc3nc(NC(C)C)oc3c2)ccn1 [Compound 98, 4-(2-Isopropylamino-benzo-oxazol-6-yloxy)-pyridine-2-carboxylic acid methylamide]	–
55%	0%	7%	CNC(=O)c1cc(Oc2ccc3nc(N[C@H]4CCCC[C@H]4NC(=O)NC(C)C)sc3c2)ccn1 [Example 301, 4-(2-((1S,2R)-2-(3-isopropylureido)cyclohexyl-amino)benzo[d]thiazol-6-yloxy)-N-methylpicolinamide]	–
93%	22%	88%	CNC(=O)c1cc(Oc2ccc3nc(N[C@H]4CCCC[C@H]4NC(=O)CC(C)C)sc3c2)ccn1 [Example 311, N-methyl-4-(2-((1S,2R)-2-(3-methylbutyanamido)cyclo-hexylamino)benzo[d]thiazol-6-yloxy)picolinamide]	–
99%	2%	0%	CNC(=O)c1cc(Oc2ccc3nc(N(C)Cc4ccccc4)oc3c2)ccn1 [Compound 106, 4-[2-(Benzyl-methyl-amino)-benzooxazol-6-yloxy]-pyridine-2-carboxylic acid methylamide]	–
25%	15%	2%	NCc1cc(Oc2ccc3nc(NCC4CCCCC4)oc3c2)ccn1 [Compound 111, [6-(2-Aminomethyl-pyridin-4-yloxy)-benzooxazol-2-yl]-cyclohexylmethyl-amine]	–
100%	100%	100%	Cn1cc(-c2cc(Oc3ccc4nc(NC5CCCCCC5)sc4c3)ccn2)cn1 [Example 364, N-cycloheptyl-6-(2-(1-methyl-1H-pyrazol-4-yl)pyridin-4-yloxy)benzo[d]thiazol-2-amine]	–
26%	–	15%	CNC(=O)c1cc(Oc2ccc3nc(Nc4ccccc4CCN4CCCC4)oc3c2)ccn1 [Compound 43, 4-{2-[2-(2-Pyrrolidin-1-yl-ethyl)-phenylamino]-benzooxazol-6-yloxy}-pyridine-2-carboxylic acid methylamide]	–
76%	0%	14%	CNC(=O)c1cc(Oc2ccc3nc(N[C@H]4CCCC[C@H]4NC(=O)c4ccccc4)sc3c2)ccn1 [Example 312, 4-(2-((1S,2R)-2-benzamidocyclohexylamino)benzo[d]thiazol-6-yloxy)-N-methylpicolinamide]	–
